The results in this text go back to patent US9085576B2 (AMGEN INC., priority 2013, dated 2015).

Assay [1] concerns the target Beta Secretase enzyme (BACE) (Homo sapiens (Human), UniProt P56817). In words: In vitro enzymatic BACE FRET assay. The assay is classed as biochemical. Conditions: read-out: BACE1 Enzyme assay IC50.
Another assay has as its target BACE (Homo sapiens (Human), UniProt P56817). In words: In vitro BACE cell-based assay (Aβ40 in conditioned medium, sandwich ELISA). On the technique in general: An ELISA detects its analyte on a solid surface through an enzyme-linked reagent.
A further assay addresses Cathepsin D (Cat D) (Homo sapiens (Human), UniProt P07339). In words: In vitro enzymatic Cathepsin D (Cat D) FRET assay. The assay is classed as biochemical. Conditions: read-out: CatD IC50.

Each structure is given as a SMILES string. Structures can show the parent of a compound that is named as a salt.

Sequence of Beta Secretase enzyme (BACE) (P56817 46-501): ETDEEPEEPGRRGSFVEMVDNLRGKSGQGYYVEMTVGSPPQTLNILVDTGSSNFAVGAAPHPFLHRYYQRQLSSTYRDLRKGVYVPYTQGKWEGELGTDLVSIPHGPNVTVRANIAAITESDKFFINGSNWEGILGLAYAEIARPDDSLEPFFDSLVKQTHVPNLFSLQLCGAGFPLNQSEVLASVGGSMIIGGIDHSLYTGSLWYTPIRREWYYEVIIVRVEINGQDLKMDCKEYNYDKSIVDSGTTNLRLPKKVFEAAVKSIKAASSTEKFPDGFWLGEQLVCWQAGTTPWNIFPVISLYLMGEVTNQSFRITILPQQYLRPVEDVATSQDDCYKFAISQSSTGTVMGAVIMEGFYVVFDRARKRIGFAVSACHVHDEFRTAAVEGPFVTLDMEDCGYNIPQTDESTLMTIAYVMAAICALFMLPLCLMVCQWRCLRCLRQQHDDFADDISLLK
Sequence of BACE (P56817 46-501, species assumed): as the sequence (P56817 46-501) above
Sequence of Cathepsin D (Cat D) (P07339 65-412, species assumed): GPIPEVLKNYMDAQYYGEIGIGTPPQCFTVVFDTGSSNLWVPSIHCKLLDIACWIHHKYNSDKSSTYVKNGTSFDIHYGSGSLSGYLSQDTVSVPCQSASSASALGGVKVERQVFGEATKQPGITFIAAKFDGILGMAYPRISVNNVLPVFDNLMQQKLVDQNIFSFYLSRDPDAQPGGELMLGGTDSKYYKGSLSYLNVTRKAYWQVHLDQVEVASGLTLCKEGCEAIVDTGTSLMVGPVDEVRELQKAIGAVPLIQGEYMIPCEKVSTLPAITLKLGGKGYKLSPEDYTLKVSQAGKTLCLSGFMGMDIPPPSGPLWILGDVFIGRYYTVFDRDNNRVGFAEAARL

Take `NC1=N[C@](c2cc(NC(=O)c3ccc(Cl)cn3)cnc2F)(C(F)F)[C@@H]2C[C@@H]2O1` (racemic) [Example 73, N-(5-([1(R,S),5(S,R),6(R,S)]-3-amino-5-(difluoromethyl)-2-oxa-4-azabicyclo[4.1.0]hept-3-en-5-yl)-6-fluoropyridin-3-yl)-5-chloropicolinamide]: the half-maximal inhibitory concentration (IC50) (usually the point on the concentration scale where inhibition reaches its midpoint) in assay [1] was found to be 0.115 µM; at BACE it was 0.331 µM; at Cathepsin D (Cat D), 274 µM.

Consider `NC1=N[C@@](c2cc(NC(=O)c3ccc(Cl)cn3)ccc2Cl)(C(F)F)[C@H]2C[C@H]2O1` (racemic) [Example 97, N-(3-(((1R,S), (5S,R), (6R,S))-3-amino-5-(difluoromethyl)-2-oxa-4-azabicyclo[4.1.0]hept-3-en-5-yl)-4-chlorophenyl)-5-chloropicolinamide trifluoroacetate], for which the IC50 worked out at 0.0371 µM in assay [1], 0.0505 µM against BACE and 1280 µM at Cathepsin D (Cat D).

For the molecule `N#Cc1ccc(C(=O)Nc2cc(F)c(Cl)c([C@]3(CF)N=C(N)O[C@H]4C[C@H]43)c2)nc1` (racemic) [Example 136, N-(3-((1R/S,5S/R,6R/S)-3-amino-5-(fluoromethyl)-2-oxa-4-4-azabicyclo[4.1.0]hept-3-en-5-yl)-4-chloro-5-fluorophenyl)-5-cyanopicolinamide], the 50% inhibitory concentration (IC50) in assay [1] came to 0.12 µM; against BACE it was 0.0214 µM; on Cathepsin D (Cat D) it was 491 µM.

Take `CSc1c(F)cc(NC(=O)c2ccc(Cl)cn2)cc1[C@@]1(CF)N=C(N)O[C@@H]2C[C@@H]21` (racemic) [Example 141, N-(3-(((1S,R),(5S,R),(6R,S))-3-amino-5-(fluoromethyl)-2-oxa-4-azabicyclo[4.1.0]hept-3-en-5-yl)-5-fluoro-4-(methylthio)phenyl)-5-chloropicolinamide]: the IC50 is more than 40 µM in assay [1], more than 15.6 µM against BACE and 655 µM at Cathepsin D (Cat D).

On to `COc1cnc(C(=O)Nc2cc(F)c(Cl)c([C@]3(CF)N=C(N)O[C@H]4C[C@H]43)c2)cn1` (racemic) [Example 152, N-(3-([1(S,R),5(R,S),6(S,R)]-3-amino-5-(fluoromethyl)-2-oxa-4-azabicyclo[4.1.0]hept-3-en-5-yl)-4-chloro-5-fluorophenyl)-5-methoxypyrazine-2-carboxamide compound with N-(3-((1S,5R,6S)-3-amino-5-(fluoromethyl)-2-oxa-4-azabicyclo[4.1.0]hept-3-en-5-yl)-4-chloro-5-fluorophenyl)-5-methoxypyrazine-2-carboxamide (1:1)], for which the IC50 in assay [1] turned out to be 0.128 µM; against BACE it was 0.0476 µM; at Cathepsin D (Cat D) it was 404 µM.

In the case of `Cc1cc(OC(F)F)cnc1C(=O)Nc1cc(F)c(Cl)c([C@]2(CF)N=C(N)O[C@H]3C[C@H]32)c1` (racemic) [Example 153, N-(3-([1(S,R),5(R,S),6(S, R)]-3-amino-5-(fluoromethyl)-2-oxa-4-azabicyclo[4.1.0]hept-3-en-5-yl)-4-chloro-5-fluorophenyl)-5-(difluoromethoxy)-3-methylpicolinamide compound with N-(3-((1S,5R,6S)-3-amino-5-(fluoromethyl)-2-oxa-4-azabicyclo[4.1.0]hept-3-en-5-yl)-4-chloro-5-fluorophenyl)-5-(difluoromethoxy)-3-methylpicolinamide (1:1)], the half-maximal inhibitory concentration (IC50) came out at 0.143 µM in assay [1], 0.0762 µM on BACE and 555 µM at Cathepsin D (Cat D).

In the case of `Cc1nc(OCC(F)(F)F)cnc1C(=O)Nc1cc(F)c(Cl)c([C@]2(CF)N=C(N)O[C@H]3C[C@H]32)c1` (racemic) [Example 159, N-(3-([1(S,R),5(R,S),6(S,R)]-3-amino-5-(fluoromethyl)-2-oxa-4-azabicyclo[4.1.0]hept-3-en-5-yl)-4-chloro-5-fluorophenyl)-3-methyl-5-(2,2,2-trifluoroethoxy)pyrazine-2-carboxamide], the half-inhibitory concentration (IC50) in assay [1] was 0.226 µM; on BACE, 0.466 µM; at Cathepsin D (Cat D), 1050 µM.

As for `NC1=N[C@](c2cccc(NC(=O)c3ccc(Cl)cn3)c2)(C(F)(F)F)[C@@H]2C[C@@H]2O1` (racemic) [Example 208, N-(3-([1(R,S),5(S,R),6(R,S)]-3-amino-5-(trifluoromethyl)-2-oxa-4-azabicyclo[4.1.0]hept-3-en-5-yl)phenyl)-5-chloropicolinamide], the results for the IC50 (in assay [1]; against BACE; on Cathepsin D (Cat D)) were 0.15 µM, 3.64 µM and 489 µM, respectively.

`NC1=N[C@](c2cc(NC(=O)c3ccc(Cl)cn3)ccc2F)(C(F)(F)F)[C@@H]2C[C@@H]2O1` (racemic) [Example 218, N-(3-((1(R,S),5(S,R),6(R,S))-3-amino-5-(trifluoromethyl)-2-oxa-4-azabicyclo[4.1.0]hept-3-en-5-yl)-4-fluorophenyl)-5-chloropicolinamide compound]: the IC50 in assay [1] is 0.861 µM; against BACE, more than 15.6 µM; at Cathepsin D (Cat D), more than 400 µM.

For `N#Cc1cnc(C(=O)Nc2ccc(F)c([C@]3(CF)N=C(N)O[C@H]4C[C@H]43)c2)c(Cl)c1` (racemic) [Example 227, N-(3-((1(R,S),5(S,R),6(R,S))-3-amino-5-(fluoromethyl)-2-oxa-4-azabicyclo[4.1.0]hept-3-en-5-yl)-4-fluorophenyl)-3-chloro-5-cyanopicolinamide], the IC50 turned out to be 0.0469 µM in assay [1], 0.0105 µM at BACE and 2260 µM at Cathepsin D (Cat D).

Take `Cc1cc(C#N)cnc1C(=O)Nc1cc(F)c(C)c([C@@]2(C(F)F)N=C(N)O[C@@H]3C[C@@H]32)c1` (racemic) [Example 309, N-(3-(((1R,S),(5S,R),(6R.S))-3-amino-5-(difluoromethyl)-2-oxa-4-azabicyclo[4.1.0]hept-3-en-5-yl)-5-fluoro-4-methylphenyl)-5-cyano-3-methylpicolinamide]: the IC50 in assay [1] came to 0.0743 µM; at BACE it was 0.0387 µM; at Cathepsin D (Cat D) it was 421 µM.

`N#Cc1ccc(C(=O)Nc2ccc(F)c([C@@]3(C(F)F)N=C(N)O[C@@H]4C[C@@H]43)n2)nc1` (racemic) [Example 330]: the IC50 in assay [1] is 0.101 µM; against BACE it was 0.0326 µM; at Cathepsin D (Cat D), 139 µM.

Turning to `CS(=O)(=O)c1c(F)cc(NC(=O)c2ccc(Cl)cn2)cc1[C@@]1(CF)N=C(N)O[C@@H]2C[C@@H]21` (racemic) [Example 424, N-(3-(((1RS),(5S,R),(6R,S))-3-amino-5-(fluoromethyl)-2-oxa-4-azabicyclo[4.1.0]hept-3-en-5-yl)-5-fluoro-4-(methylsulfonyl)phenyl)-5-chloropicolinamide], the IC50 in assay [1] turned out to be 1.03 µM; against BACE, 0.254 µM; at Cathepsin D (Cat D), 832 µM.

On to `C#CCOc1cnc(C(=O)Nc2cc(F)c(F)c(C3(CF)N=C(N)O[C@H]4C[C@H]43)c2)cn1` (stereo in doubt) [Example 34, N-(3-((1S,5S,6S)-3-amino-5-(fluoromethyl)-2-oxa-4-azabicyclo[4.1.0]hept-3-en-5-yl)-4,5-difluorophenyl)-5-(prop-2-yn-1-yloxy)pyrazine-2-carboxamide], for which the values for the IC50 (in assay [1]; on BACE; at Cathepsin D (Cat D)) were 6.21 µM, 1.75 µM and 623 µM, respectively.

In the case of `CC#CCOc1cnc(C(=O)Nc2cc(F)c(F)c(C3(CF)N=C(N)O[C@H]4C[C@H]43)c2)cn1` (stereo in doubt) [Example 36, N-(3-((1S,5S,6S)-3-amino-5-(fluoromethyl)-2-oxa-4-azabicyclo[4.1.0]hept-3-en-5-yl)-4,5-difluorophenyl)-5-(but-2-yn-1-yloxy)pyrazine-2-carboxamide], the IC50 in assay [1] came to 0.295 µM; on BACE it was 0.176 µM; at Cathepsin D (Cat D) it was 526 µM.

For the molecule `NC1=NC(CF)(c2cc(NC(=O)c3ccc(Br)cn3)cc(F)c2F)[C@@H]2C[C@@H]2O1` (stereo in doubt) [Example 40, N-(3-((1S,5S,6S)-3-amino-5-(fluoromethyl)-2-oxa-4-azabicyclo[4.1.0]hept-3-en-5-yl)-4,5-difluorophenyl)-5-bromopicolinamide], the IC50 was 6.5 µM in assay [1], 1.91 µM on BACE and 516 µM on Cathepsin D (Cat D).

`NC1=NC(CF)(c2cc(NC(=O)c3nn(C(F)F)cc3Cl)cc(F)c2F)[C@@H]2C[C@@H]2O1` (stereo in doubt) [Example 47, N-(3-((1S,5S,6S)-3-amino-5-(fluoromethyl)-2-oxa-4-azabicyclo[4.1.0]hept-3-en-5-yl)-4,5-difluorophenyl)-4-chloro-1-(difluoromethyl)-1H-pyrazole-3-carboxamide]: the IC50 was 21.2 µM in assay [1], 1.76 µM at BACE and 968 µM at Cathepsin D (Cat D).

As to `Cc1cc(C#N)cnc1C(=O)Nc1cc(F)c(F)c([C@@]2(CF)N=C(N)O[C@@H]3C[C@@H]32)c1` (stereo in doubt) [Example 50], the IC50 in assay [1] was 26.6 µM; at BACE, more than 15.6 µM; at Cathepsin D (Cat D) it was 1750 µM.

Consider `Cc1cc(C(F)(F)F)cnc1C(=O)Nc1cc(F)c(F)c([C@@]2(CF)N=C(N)O[C@@H]3C[C@@H]32)c1` (stereo in doubt) [Example 52], for which the IC50 is more than 40 µM in assay [1], more than 15.6 µM against BACE and 1630 µM on Cathepsin D (Cat D).

On to `Cc1nc(Cl)cnc1C(=O)Nc1ccc(F)c([C@@]2(C(F)F)N=C(N)O[C@@H]3C[C@@H]32)c1` (stereo in doubt) [Example 53, N-(3-((1R,5S,6R)-3-amino-5-(difluoromethyl)-2-oxa-4-azabicyclo[4.1.0]hept-3-en-5-yl)-4-fluorophenyl)-5-chloro-3-methylpyrazine-2-carboxamide], for which the IC50 in assay [1] is 0.0616 µM; against BACE, 2.38 µM; at Cathepsin D (Cat D), 577 µM.

As to `Cc1ncc(Cl)nc1C(=O)Nc1ccc(F)c([C@@]2(C(F)F)N=C(N)O[C@@H]3C[C@@H]32)c1` (stereo in doubt) [Example 54, N-(3-((1R,5S,6R)-3-amino-5-(difluoromethyl)-2-oxa-4-azabicyclo[4.1.0]hept-3-en-5-yl)-4-fluorophenyl)-6-chloro-3-methylpyrazine-2-carboxamide], the IC50 in assay [1] amounted to 2.51 µM; on BACE it was 2.24 µM; at Cathepsin D (Cat D) it was 460 µM.
